Assay results: article PMC10167355, “Optimized spirooxindole-pyrazole hybrids targeting the p53-MDM2 interplay induce apoptosis and synergize with doxorubicin in A549 cells” (Scientific Reports, 2023)
“Also recorded” adds a separate entry of the source.

Assays:
p53 = assay: Western blot of p53 level in A549 cells; type: cell-based, human; conditions: for p53 induction, dose–response: A549, 24 h, 0.01, 0.1, 1, 10 µM; for p53 level, single agent / p53 level, combined treatment compared to doxorubicin alone: A549; for p53 level, single agent: 0.2 µM derivative alone or 14 µM doxorubicin alone; for p53 level, combined treatment compared to doxorubicin alone: 0.2 µM derivative plus 14 µM doxorubicin; for p53 level: A549, drug concentration equivalent to IC75 (30 µM), fold over mock
Procedure: (§1) A549 cells were treated with different concentrations of the molecules as indicated. Cell extracts were prepared as described. Ten-20 μg of total proteins were resolved on 4–15% Mini protean TGX precast gels (Bio-Rad) and transferred to nitrocellulose membrane using 1704158 Trans-Blot Turbo Mini NC Transfer Packs (Bio-Rad) in a Trans-Blot Turbo apparatus (Bio-Rad). Membranes were blocked with 5% non-fat dry milk in 0.1% Tween-20 in PBS for 1 h, then incubated for 1 h at room temperature or overnight at 4 °C with the appropriate primary antibody. The following antibodies were employed: anti-p53 (DO-1, sc-126, Santa Cruz Biotechnology, 1:20.000), anti-p21 (2946, Cell Signaling, 1:2000), anti-MDM2 (SMP14, sc-965, Santa Cruz Biotechnology, 1:200), anti β-actin (AC-74, Sigma-Aldrich, 1:30.000); secondary anti-mouse IgG peroxidase conjugate (A9044, Sigma–Aldrich, 1:10.000) and secondary anti-rabbit peroxidase conjugate (A9169, Sigma-Aldrich, 1: 12.000). Detection was carried out with ECL FAST PICO (ECL-1002, Immunological Sciences, Roma, Italy). Chemiluminescence was analysed by Alliance LD, UVITEC Cambridge (Cambridge, UK).

MDM2 = assay: Western blot of MDM2 level in A549 cells; type: cell-based, human; conditions: for MDM2 level, single agent / MDM2 level, combined treatment compared to doxorubicin alone: A549; for MDM2 level, single agent: 0.2 µM derivative alone or 14 µM doxorubicin alone; for MDM2 level, combined treatment compared to doxorubicin alone: 0.2 µM derivative plus 14 µM doxorubicin; for MDM2 level: A549, drug concentration equivalent to IC75 (30 µM), fold over mock
Procedure: as §1

p21 = assay: Western blot of p21 level in A549 cells; type: cell-based, human; conditions: for p21 level, single agent / p21 level, combined treatment compared to doxorubicin alone: A549; for p21 level, single agent: 0.2 µM derivative alone or 14 µM doxorubicin alone; for p21 level, combined treatment compared to doxorubicin alone: 0.2 µM derivative plus 14 µM doxorubicin
Procedure: as §1

A549 cells = assay: Annexin-V-FITC / propidium iodide apoptosis assay; type: cell-based, human; conditions: A549, compounds at their specific IC75s, three days
Procedure: The induction of apoptosis was evaluated in A549 cells characterized by wild-type p53 and MDM2 proteins. They were plated at the opportune concentration (see above) into 25 cm^2 flasks in 10 mL complete medium. After 6–8 h the compounds were added at their specific IC75s, as previously calculated by the MTT assay.
All floating and adherent cells were harvested three days later, washed with normal saline buffer, and apoptosis determined by double staining with Annexin-V-FITC and propidium iodide (PI) (rh AnnexinV/FITC Kit, Bender MedSystem GmbH, Vienna, Austria). Briefly, 0.5 × 10^6 cells were resuspended in binding buffer 1× and stained with 5 μL of Annexin-V-FITC. After 10 min incubation 10 μL of PI were added and samples incubated for 5 min. Samples were immediately analyzed using a Flow Cytometer (FACScan, BD Biosciences, Milano, Italy) with dedicated software.

[1] = tested on: A2780, A549, HepG2, MDA-MB-453; assay: MTT assay, panel of four human cancer cell lines taken together; type: cell-based; conditions: all four cell lines, 30 μM = arbitrary limit of pharmacological relevance
Procedure: After 6–8 h cells were treated with 20 μL containing five 1:10 fold concentrations of our compounds diluted in FCS containing 3% DMSO. As normal non-cancer cell targets we used peripheral blood lymphocytes obtained from three healthy volunteers, isolated by gradient centrifugation (Lympholyte-H Cell Separation Media, EuroClone, Pero, MI, Italy) and stimulated with 1% phytohemagglutinin and 100 U/ml recombinant IL-2. One week after stimulation cells were ready for use at 15,000/well. In both cases, after 72 h treatment, the MTT assay was applied as described elsewhere. […] IC100 and IC75 were extrapolated from the mean concentration–response curves.

A2780 (ovarian) = assay: MTT antiproliferative assay, A2780; type: cell-based; conditions: Homo sapiens, 72 h treatment, mean ± SD of 5–6 data
Procedure: (§2) Human tumor cell lines A2780 [ovary, adenocarcinoma, accession number HTL98008, obtained from Interlab Cell Line Collection (ICLC), Genova, Italy], A549 (lung, carcinoma, HTL03001, ICLC), MDA-MB-453 (breast, carcinoma, HTL01013, ICLC), and HepG2 (liver, carcinoma, HB-8065, American Type Culture Collection, Rockville, MA, USA ) were plated at 1.4 × 10^4/ml, 0.65 × 10^4/mL, 4.7 × 10^4/mL, and 1.0 × 10^4/mL, respectively, in 180 μL complete medium (RPMI 1640 for A2780 and A549 and DMEM for MDA-MB-453 and HepG2) into flat-bottomed 96-well microtiter plates. After 6–8 h cells were treated with 20 μL containing five 1:10 fold concentrations of our compounds diluted in FCS containing 3% DMSO. As normal non-cancer cell targets we used peripheral blood lymphocytes obtained from three healthy volunteers, isolated by gradient centrifugation (Lympholyte-H Cell Separation Media, EuroClone, Pero, MI, Italy) and stimulated with 1% phytohemagglutinin and 100 U/ml recombinant IL-2. One week after stimulation cells were ready for use at 15,000/well.
(§3) In both cases, after 72 h treatment, the MTT assay was applied as described elsewhere. The IC50 values were calculated from the analysis of single concentration–response curves, each final value is the mean of 5–6 experiments. IC100 and IC75 were extrapolated from the mean concentration–response curves.

HepG2 (liver) = assay: MTT antiproliferative assay, HepG2; type: cell-based; conditions: Homo sapiens, 72 h treatment, mean ± SD of 5–6 data
Procedure: as §2, §3

activated PBL = assay: MTT assay on normal PBL activated with PHA and recombinant IL-2; type: cell-based; conditions: Homo sapiens, mean ± SD of 4–6 IC50 values
Procedure: as §2
In both cases, after 72 h treatment, the MTT assay was applied as described elsewhere. […] IC100 and IC75 were extrapolated from the mean concentration–response curves.

A549 (lung) = assay: MTT antiproliferative assay, A549; type: cell-based; conditions: Homo sapiens, 72 h treatment, mean ± SD of 5–6 data
Procedure: as §2, §3

`Cc1c(C(=O)C2C(c3ccccc3)C3CSCN3C23C(=O)Nc2ccccc23)cnn1-c1ccccc1` (centres unmarked) gave a melting point of 229 to 230 °C.
Compound `Cc1cccc(C2C3CSCN3C3(C(=O)Nc4ccccc43)C2C(=O)c2cnn(-c3ccccc3)c2C)c1` (centres unmarked) has a melting point of 128 to 130 °C.
Work on `COc1ccc(C2C3CSCN3C3(C(=O)Nc4ccccc43)C2C(=O)c2cnn(-c3ccccc3)c2C)cc1` (centres unmarked) yielded a melting point of 109 to 110 °C.
`Cc1c(C(=O)C2C(c3ccc(Cl)cc3)C3CSCN3C23C(=O)Nc2ccccc23)cnn1-c1ccccc1` (centres unmarked) showed a melting point of 122 to 123 °C.
Work on `Cc1c(C(=O)C2C(/C=C/c3ccccc3)C3CSCN3C23C(=O)Nc2ccccc23)cnn1-c1ccccc1` (centres unmarked) yielded a melting point of 144 to 145 °C.
`Cc1c(C(=O)C2C(c3ccc([N+](=O)[O-])cc3)C3CSCN3C23C(=O)Nc2ccccc23)cnn1-c1ccccc1` (centres unmarked) gave a melting point of 142 to 143 °C.
In the case of `Cc1c(C(=O)C2C(c3cccc([N+](=O)[O-])c3)C3CSCN3C23C(=O)Nc2ccccc23)cnn1-c1ccccc1` (centres unmarked), the melting point is reported as 146 to 147 °C.
Compound `Cc1ccc(C2C3CSCN3C3(C(=O)Nc4ccccc43)C2C(=O)c2cnn(-c3ccccc3)c2C)cc1` (centres unmarked) has a melting point of 134 to 135 °C.
For “7'-(Ferrocin-2-yl)-6'-(5-methyl-1-phenyl-1H-pyrazole-4-carbonyl)-3',6',7',7a'-tetrahydro-1'H-spiro[indoline-3,5'-pyrrolo[1,2-c]thiazol]-2-one [8d]”, the “p53 induction, dose–response” value (p53) was “able to induce p53 only at high concentrations”, the “p53 level, single agent” value (p53) was “did not increase” and the “p53 level, combined treatment compared to doxorubicin alone” value (shortened to “p53 level … compared to doxorubicin alone”) (p53) was “no further increases”. The “MDM2 level, single agent” value (MDM2) was “slight but not significant MDM2 increase”, the “MDM2 level, combined treatment compared to doxorubicin alone” value (shortened to “MDM2 level … compared to doxorubicin alone”) (MDM2) was “no further increases” and the “p21 level, single agent” value (p21) was “did not increase”. For the same compound, the “p21 level, combined treatment compared to doxorubicin alone” value (“p21 level … compared to doxorubicin alone” below) (p21) was “no further increases”.
In the case of `Cc1c(C(=O)C2C(c3ccco3)C3CSCN3C23C(=O)Nc2ccccc23)cnn1-c1ccccc1` (centres unmarked) [8b, 7'-(Furan-2-yl)-6'-(5-methyl-1-phenyl-1H-pyrazole-4-carbonyl)-3',6',7',7a'-tetrahydro-1'H-spiro[indoline-3,5'-pyrrolo[1,2-c]thiazol]-2-one], the apoptotic activity (A549 cells) is reported as “significantly trigger apoptosis”, the apoptotic activity (A549 cells; listed as 8t) is reported as “highly significant apoptotic activity” and the melting point is reported as 227 to 228 °C. For the same compound, the p53 level (p53) was “significantly increased; also recorded: able to activate p53”, the IC50 [1] was no less than 30 µM and the MDM2 level (MDM2) was “an increase”. The p21 level (p21; A549, drug concentration equivalent to IC75 (30 µM), fold over mock) was “an increase”.
In the case of `Cc1c(C(=O)C2C(c3ccc(Cl)cc3Cl)C3CSCN3C23C(=O)Nc2ccccc23)cnn1-c1ccccc1` (centres unmarked) [8h, 7'-(2,4-Dichlorophenyl)-6'-(5-methyl-1-phenyl-1H-pyrazole-4-carbonyl)-1',6',7',7a'-tetrahydro-3'H-spiro[indoline-3,5'-pyrrolo[1,2-c]thiazol]-2-one], the apoptotic activity (A549 cells) is reported as “slightly trigger apoptosis”, the IC50 (A2780 (ovarian)) is reported as 10.3 µM and the melting point is reported as 141 to 142 °C. The “p53 induction, dose–response” value (p53) was “able to induce p53 only at high concentrations; also recorded: induce p53, although not at high level and only at high concentrations”, the “p53 level, single agent” value (p53) was “did not increase” and the “p53 level … compared to doxorubicin alone” value (p53) was “no further increases; also recorded: did not trigger a further”. For the same compound, the IC50 (HepG2 (liver)) was 18.6 µM, the IC50 (activated PBL; PBL A) was 53.6 ± 2.1 µM and the IC50 (activated PBL; PBL B) was 57.4 ± 5.5 µM. For the same compound, the IC50 (activated PBL; PBL C) was 65.8 ± 23.2 µM, the “MDM2 level, single agent” value (MDM2) was “slight but not significant MDM2 increase” and the “MDM2 level … compared to doxorubicin alone” value (MDM2) was “no further increases; also recorded: did not trigger a further”. The “p21 level, single agent” value (p21) was “did not increase” and the “p21 level … compared to doxorubicin alone” value (p21) was “no further increases”.
With `Cc1c(C(=O)C2C(c3cccc(F)c3)C3CSCN3C23C(=O)Nc2ccccc23)cnn1-c1ccccc1` (centres unmarked) [8j, 7'-(3-Fluorophenyl)-6'-(5-methyl-1-phenyl-1H-pyrazole-4-carbonyl)-1',6',7',7a'-tetrahydro-3'H-spiro[indoline-3,5'-pyrrolo[1,2-c]thiazol]-2-one] the apoptotic activity (A549 cells) was “slightly trigger apoptosis”, the melting point was 125 to 126 °C and the “p53 induction, dose–response” value (p53) was “able to induce p53 only at high concentrations; also recorded: induce p53, although not at high level and only at high concentrations”. For the same compound, the “p53 level, single agent” value (p53) was “did not increase”, the “p53 level … compared to doxorubicin alone” value (p53) was “no further increases; also recorded: did not trigger a further” and the IC50 (activated PBL; PBL A) was 54 ± 2.5 µM. For the same compound, the IC50 (activated PBL; PBL B) was 55 ± 3.3 µM, the IC50 (activated PBL; PBL C) was 61.2 ± 19.7 µM and the “MDM2 level, single agent” value (MDM2) was “slight but not significant MDM2 increase”. The “MDM2 level … compared to doxorubicin alone” value (MDM2) was “no further increases; also recorded: did not trigger a further”, the “p21 level, single agent” value (p21) was “did not increase” and the “p21 level … compared to doxorubicin alone” value (p21) was “no further increases”.
With `Cc1c(C(=O)C2C(c3ccccn3)C3CSCN3C23C(=O)Nc2ccccc23)cnn1-c1ccccc1` (centres unmarked) [8l, 6'-(5-Methyl-1-phenyl-1H-pyrazole-4-carbonyl)-7'-(pyridin-2-yl)-3',6',7',7a'-tetrahydro-1'H-spiro[indoline-3,5'-pyrrolo[1,2-c]thiazol]-2-one] the melting point was 135 to 136 °C and the IC50 [1] was no less than 30 µM.
In the case of `Cc1c(C(=O)C2C(c3cccc(Br)c3)C3CSCN3C23C(=O)Nc2ccccc23)cnn1-c1ccccc1` (centres unmarked) [8m, 7'-(3-Bromophenyl)-6'-(5-methyl-1-phenyl-1H-pyrazole-4-carbonyl)-3',6',7',7a'-tetrahydro-1'H-spiro[indoline-3,5'-pyrrolo[1,2-c]thiazol]-2-one], the apoptotic activity (A549 cells) is reported as “highly significant apoptotic activity; also recorded: considerable high level of apoptosis”, the melting point is reported as 132 to 133 °C and the p53 level (p53) is reported as “did not induce any changes; also recorded: did not induce p53”. The IC50 (activated PBL; PBL A) was 48.8 ± 4.9 µM, the IC50 (activated PBL; PBL B) was 36.1 ± 14.7 µM and the IC50 (activated PBL; PBL C) was 68.1 ± 23.8 µM. The IC50 (A549 (lung)) was 17.7 µM, the “MDM2 modulation, dose–response” value (MDM2; A549, 24 h, 0.01, 0.1, 1, 10 µM) was “dose-dependent down regulation of MDM2” and the MDM2 level (MDM2) was “downmodulated MDM2; also recorded: clear down modulation; also recorded: down regulation of MDM2”.
For `COc1cccc2c1C(=O)c1c(O)c3c(c(O)c1C2=O)C[C@@](O)(C(=O)CO)C[C@@H]3O[C@H]1C[C@H](N)[C@H](O)[C@H](C)O1` [Doxorubicin, doxorubicin], the “p53 level, single agent” value (p53) was “clearly triggered the induction”, the “MDM2 level, single agent” value (MDM2) was “strongly decreased” and the “p21 level, single agent” value (p21) was “clearly triggered the induction”.
